Experimental data published in patent US20090312288A1 (TAKEDA PHARMACEUTICAL COMPANY LIMITED, priority 2008, published 2009).

Target: Aurora B/INCENP (Homo sapiens, UniProt Q96GD4)
Assay: Determination of inhibition of AIK: Aurora B/INCENP direct fluorescence polarization (IMAP) assay
Type: biochemical
Settings: 10 uM ATP, 0.8 nM Aurora B/INCENP; values given as bins; read-out: IC50 of Exemplified Compounds Against AIK B

Sequence of Aurora B/INCENP (Q96GD4 whole entry): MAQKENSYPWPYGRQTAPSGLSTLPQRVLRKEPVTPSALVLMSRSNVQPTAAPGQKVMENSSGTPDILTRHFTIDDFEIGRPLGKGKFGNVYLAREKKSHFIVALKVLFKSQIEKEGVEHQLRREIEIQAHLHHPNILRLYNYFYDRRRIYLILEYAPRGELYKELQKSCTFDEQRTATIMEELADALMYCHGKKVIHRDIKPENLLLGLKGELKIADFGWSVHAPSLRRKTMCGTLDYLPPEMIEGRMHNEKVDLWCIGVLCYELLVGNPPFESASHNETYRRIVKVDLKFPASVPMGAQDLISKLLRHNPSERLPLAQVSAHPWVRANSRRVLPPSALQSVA
Sequence of Aurora B/INCENP (Q9NQS7 whole entry partner): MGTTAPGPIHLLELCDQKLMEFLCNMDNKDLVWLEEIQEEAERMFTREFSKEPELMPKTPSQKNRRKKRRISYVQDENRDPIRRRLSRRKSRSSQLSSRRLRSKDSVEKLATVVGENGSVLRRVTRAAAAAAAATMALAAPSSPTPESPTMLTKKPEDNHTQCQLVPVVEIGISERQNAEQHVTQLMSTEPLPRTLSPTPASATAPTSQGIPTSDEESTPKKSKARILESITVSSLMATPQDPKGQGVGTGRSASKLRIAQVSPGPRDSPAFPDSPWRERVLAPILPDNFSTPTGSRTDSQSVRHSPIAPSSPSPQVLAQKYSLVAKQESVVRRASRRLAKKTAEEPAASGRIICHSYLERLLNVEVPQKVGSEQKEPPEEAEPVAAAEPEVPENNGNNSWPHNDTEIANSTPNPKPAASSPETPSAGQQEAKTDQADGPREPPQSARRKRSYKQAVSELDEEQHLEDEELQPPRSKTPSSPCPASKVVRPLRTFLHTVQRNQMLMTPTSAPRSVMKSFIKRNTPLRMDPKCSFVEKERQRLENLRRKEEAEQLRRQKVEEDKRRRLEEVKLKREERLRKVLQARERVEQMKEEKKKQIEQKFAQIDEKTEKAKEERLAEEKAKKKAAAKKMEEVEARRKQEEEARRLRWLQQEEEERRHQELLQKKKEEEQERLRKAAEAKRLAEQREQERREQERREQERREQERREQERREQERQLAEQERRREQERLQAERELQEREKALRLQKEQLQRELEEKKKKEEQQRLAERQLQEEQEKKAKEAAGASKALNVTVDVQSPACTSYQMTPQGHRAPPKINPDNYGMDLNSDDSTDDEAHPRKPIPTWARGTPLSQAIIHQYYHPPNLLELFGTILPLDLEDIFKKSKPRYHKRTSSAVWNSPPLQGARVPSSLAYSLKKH

Compound | IC50 [nM]
Cc1cnc2[nH]c3c(OCCCN4CCC(OP(=O)(O)O)CC4)ccc(-c4cccc(S(=O)(=O)C5CC5)c4)c3c2c1 [Compound 444, 1-(3-(5-(3-(cyclopropylsulfonyl)phenyl)-3-methyl-9H-pyrido[2,3-b]indol-8-yloxy)propyl)piperidin-4-yl dihydrogen phosphate] | < 4
CCS(=O)(=O)c1cccc(-c2ccc(OCCCN3CCC(COP(=O)(O)O)CC3)c3[nH]c4ncc(C)cc4c23)c1 [Compound 449, (1-(3-(5-(3-(ethylsulfonyl)phenyl)-3-methyl-9H-pyrido[2,3-b]indol-8-yloxy)propyl)piperidin-4-yl)methyl dihydrogen phosphate] | < 4
CCS(=O)(=O)c1cccc(-c2cc(C(=O)NC3CCNCC3)c(C)c3[nH]c4ncc(C)cc4c23)c1 [Compound 451, 5-(3-(ethylsulfonyl)phenyl)-3,8-dimethyl-N-(piperidin-4-yl)-9H-pyrido[2,3-b]indole-7-carboxamide] | 8.6 to 13
CCS(=O)(=O)c1cccc(-c2cc(C(=O)N3CCC(CCO)CC3)c(C)c3[nH]c4ncc(C)cc4c23)c1 [Compound 454, (5-(3-(ethylsulfonyl)phenyl)-3,8-dimethyl-9H-pyrido[2,3-b]indol-7-yl)(4-(2-hydroxyethyl)piperidin-1-yl)methanone] | 8.6 to 13
CCS(=O)(=O)c1cccc(-c2cc(C(=O)NC3CCN(CCO)CC3)c(C)c3[nH]c4ncc(C)cc4c23)c1 [Compound 456, 5-(3-(ethylsulfonyl)phenyl)-N-(1-(2-hydroxyethyl)piperidin-4-yl)-3,8-dimethyl-9H-pyrido[2,3-b]indole-7-carboxamide] | 5.6 to 8.5
CCS(=O)(=O)c1cccc(-c2c(Cl)cnc3[nH]c4c(OC)cccc4c23)c1 [Compound 464, 3-chloro-4-(3-(ethylsulfonyl)phenyl)-8-methoxy-9H-pyrido[2,3-b]indole] | 5.6 to 8.5
(3-chloro-5-(3-(ethylsulfonyl)phenyl)-9H-pyrido[2,3-b]indol-8-ol [Compound 219] | < 4
